Drawing on patent publication US20240300951A1, “Pyrazolopyridinone Compounds” (BeiGene Ltd., priority 2021, published 2024), this text covers IC50 for 33 molecules.

One test addresses T1, DGKα (Homo sapiens, UniProt P23743).
T1 construct: Full length DGKα (D21-10BG, SignalChem); purchased SignalChem D21-10BG
Put plainly: Biochemical DGK IC50 assay, DGKα ADP-Glo assay. The note with it: full length DGKα 7.5 nM, ATP 140 μM, DAG 80 μM. Here is the method:
(§1) Enzymatic reactions of DGKζ, DGKα and DGKδ were performed using ADP-Glo assay with lipid micelle substrate. […] Full length DGKα (D21-10BG, SignalChem) and full length DGKδ (D23-10G, SignalChem) were purchased. Lipid micelle was prepared by dissolving DAG (Sigma, 317505-10MG) and PS (Sigma, P7769-100MG) with chloroform which was furtherly removed by rotary evaporation. The resulted product was resuspended in buffer containing 25 mM HEPES pH 7.0, 0.5 mM EDTA and 160 mM Octyl β-D glucopyranoside by vigorous mixing and ultrasonic (IID, Scientz)
(§2) The ranges of compounds final concentration were 1.55-10000 nM or 23.3-150000 nM. 3 μL 2× enzyme solution was added to wells.

The next test addresses T2, DGKζ (Homo sapiens, UniProt Q13574).
T2 construct: His (N); TEV cleavage site (N); made in house; host or cells: Sf9 insect cells (baculovirus, Bac-to-Bac)
Kind of test: Biochemical DGK IC50 assay, DGKζ ADP-Glo assay. The note with it: full length DGKζ 0.5 nM, ATP 140 μM, DAG 80 μM. Here is the method: as §1, §2
Human His-TEV-DGK-zeta-pFastBac1 and human baculovirus samples was generated using the Bac-to-Bac baculovirus expression system (Invitrogen) according to the manufacturer's protocol. The DNA used for expression of DGK-zeta, have SEQ ID Nos: 1. Baculovirus amplification was achieved using infected SF9 cells at 1:2000 virus/cells ratios, and grown for 96 hours at 27° C. post-transfected.
The expression scaled up for each protein was carried out in the […] from CORNING. 4 L of 3×10^6 cells/mL Sf9 cells (Expression System, Invitrogen) grown in SF900™ II SFM insect medium (Expression System) was infected with virus stock at 1:200 virus/cells ratio, and grown for 48 hours at 27° C. post-transfection. The infected cell culture was harvested by centrifugation at 6000 rpm for 15 min 4° C. in a SORVALL LYNX6000 centrifuge. The cell pellets were stored at −80° C.
Full length human DGK produced as described above, was purified from Sf9 baculovirus-infected insect cell paste. The cells were lysed using sonication method, and the lysates were clarified by centrifugation.
On the technique in general: ADP-Glo turns the ADP formed in a reaction into a luminescent signal.

A word on the IC50: it is the concentration at which inhibition is half-maximal. High values mean a need for much substance, low ones inhibition by little substance.

T1 sequence (P23743 whole entry): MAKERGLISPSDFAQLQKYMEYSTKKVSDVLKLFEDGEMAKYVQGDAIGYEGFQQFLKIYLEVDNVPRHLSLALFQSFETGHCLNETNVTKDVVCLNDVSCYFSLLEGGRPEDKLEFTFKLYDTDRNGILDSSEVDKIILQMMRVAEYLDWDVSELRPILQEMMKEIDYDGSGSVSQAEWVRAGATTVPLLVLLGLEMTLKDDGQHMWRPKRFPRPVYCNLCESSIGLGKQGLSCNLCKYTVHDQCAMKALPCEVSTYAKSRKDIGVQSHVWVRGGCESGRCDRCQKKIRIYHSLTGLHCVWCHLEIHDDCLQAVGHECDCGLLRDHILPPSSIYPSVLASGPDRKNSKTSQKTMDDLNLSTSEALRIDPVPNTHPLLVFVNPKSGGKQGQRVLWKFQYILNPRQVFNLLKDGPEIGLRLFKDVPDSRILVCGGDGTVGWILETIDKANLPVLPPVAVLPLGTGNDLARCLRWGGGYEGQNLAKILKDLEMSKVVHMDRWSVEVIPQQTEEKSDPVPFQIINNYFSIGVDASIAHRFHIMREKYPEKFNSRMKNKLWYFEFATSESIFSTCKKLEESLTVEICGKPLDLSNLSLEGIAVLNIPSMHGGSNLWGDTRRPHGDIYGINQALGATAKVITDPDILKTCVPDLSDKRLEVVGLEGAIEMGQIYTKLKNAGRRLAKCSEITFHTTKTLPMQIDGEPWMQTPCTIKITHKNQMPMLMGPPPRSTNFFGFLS
T2 sequence (Q13574 1-929 isoform Q13574-4): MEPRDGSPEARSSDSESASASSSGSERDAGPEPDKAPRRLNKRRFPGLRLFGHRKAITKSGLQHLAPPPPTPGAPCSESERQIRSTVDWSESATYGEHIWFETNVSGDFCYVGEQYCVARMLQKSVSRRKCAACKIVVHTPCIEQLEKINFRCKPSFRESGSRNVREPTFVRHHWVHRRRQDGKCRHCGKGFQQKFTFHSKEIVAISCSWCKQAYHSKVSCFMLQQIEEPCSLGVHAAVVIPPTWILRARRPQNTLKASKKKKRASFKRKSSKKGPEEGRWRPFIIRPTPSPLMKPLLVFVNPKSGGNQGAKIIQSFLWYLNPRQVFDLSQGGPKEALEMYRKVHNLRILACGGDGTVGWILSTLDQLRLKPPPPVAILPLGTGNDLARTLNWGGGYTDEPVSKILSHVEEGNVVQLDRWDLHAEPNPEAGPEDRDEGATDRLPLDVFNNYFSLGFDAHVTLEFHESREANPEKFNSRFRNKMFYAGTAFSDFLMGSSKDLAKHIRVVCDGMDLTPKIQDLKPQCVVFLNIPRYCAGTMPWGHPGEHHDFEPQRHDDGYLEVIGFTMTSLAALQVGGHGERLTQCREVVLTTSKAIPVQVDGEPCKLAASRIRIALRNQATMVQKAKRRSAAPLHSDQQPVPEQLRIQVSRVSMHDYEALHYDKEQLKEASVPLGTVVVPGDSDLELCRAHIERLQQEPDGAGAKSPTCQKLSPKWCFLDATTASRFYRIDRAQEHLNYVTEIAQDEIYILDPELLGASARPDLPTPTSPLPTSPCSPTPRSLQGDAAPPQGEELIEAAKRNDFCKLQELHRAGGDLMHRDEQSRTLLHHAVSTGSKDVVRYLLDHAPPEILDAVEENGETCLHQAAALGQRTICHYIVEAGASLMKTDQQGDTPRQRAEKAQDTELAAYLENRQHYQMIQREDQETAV

On to “7-((2S,5R)-4-(1-(1-(2,2-difluoroethyl)-1H-pyrazol-5-yl)ethyl)-2,5-diethylpiperazin-1-yl)-4-methyl-2,4-dihydro-5H-pyrazolo[4,3-b]pyridin-5-one [Compound A228]”, for which the IC50 against DGKα was above 10000 nM; against DGKζ, 9200 nM.

Take `Cc1nc2ccc(C(C)N3C[C@H](C)N(c4cc(=O)n(C)c5cn(CC#N)nc45)C[C@H]3C)cn2n1` (mixture of isomers) [Compound A321]: the IC50 on DGKζ turned out to be 4020 nM. This lies in the single-digit micromolar range. As for `COCc1cc(F)ccc1C(C)N1C[C@H](C)N(c2cc(=O)n(C)c3cn(CC#N)nc23)C[C@H]1C` (single isomer, unassigned) [Compound A29a], the figures for the IC50 against DGKα and against DGKζ were above 10000 nM and 2220 nM, respectively. Consider `CC(c1ccc2c(c1)OCC(C)(C)O2)N1C[C@H](C)N(c2cc(=O)n(C)c3cn(CC#N)nc23)C[C@H]1C` (single isomer, unassigned) [Compound A46c], for which the values for the IC50 on DGKα and at DGKζ were 3340 nM and 135 nM, respectively.

With `CC(c1ccc2c(c1)OC(C)(C)CO2)N1C[C@H](C)N(c2cc(=O)n(C)c3cn(CC#N)nc23)C[C@H]1C` (single isomer, unassigned) [Compound A46d], the IC50 was 11400 nM at DGKα and 9 nM against DGKζ. For the molecule `CC(c1ccc2c(c1)OCC(C)(C)O2)N1C[C@H](C)N(c2cc(=O)n(C)c3cn(CC#N)nc23)C[C@H]1C` (single isomer, unassigned) [Compound A46e], the IC50 against DGKα is 26000 nM; against DGKζ, 6160 nM. In the case of `CC[C@H]1CN(C(C)c2ccc(C3CC3)cc2F)[C@H](CC)CN1c1cc(=O)n(C)c2cn(CC#N)nc12` (single isomer, unassigned) [Compound A72a], the IC50 at DGKα came to 1200 nM; against DGKζ, 850 nM. Taken in the same sequence, the figures for `CC[C@H]1CN(C(C)c2ccc(C3CC3)cc2F)[C@H](CC)CN1c1cc(=O)n(C)c2cn(CC#N)nc12` (single isomer, unassigned) [Compound A72b] were 83 nM and 15 nM. Regarding `CC[C@H]1CN(C(C)c2ncccc2OC)[C@H](CC)CN1c1cc(=O)n(C)c2cn(CC#N)nc12` (single isomer, unassigned) [Compound A92a], the IC50 on DGKα and at DGKζ was above 10000 nM in each case. The molecule `CC[C@H]1CN(C(C)c2ncccc2OC)[C@H](CC)CN1c1cc(=O)n(C)c2cn(CC#N)nc12` (single isomer, unassigned) [Compound A92b] had an IC50 on DGKζ of 2840 nM. Take `CC[C@H]1CN(C(C)c2cccc(C)c2C(F)(F)F)[C@H](CC)CN1c1cc(=O)n(C)c2cn(CC#N)nc12` (single isomer, unassigned) [Compound A110a]: the concentration for half-maximal inhibition (IC50) on DGKα came to 1160 nM; on DGKζ, 151 nM. On to `CC[C@H]1CN(C(C)c2cccc(C)c2C(F)(F)F)[C@H](CC)CN1c1cc(=O)n(C)c2cn(CC#N)nc12` (single isomer, unassigned) [Compound A110b], for which the IC50 at DGKα worked out at 9030 nM; at DGKζ, 1230 nM. Turning to `CC[C@H]1CN(C2CCCc3ccccc32)[C@H](CC)CN1c1cc(=O)n(C)c2cn(CC#N)nc12` (single isomer, unassigned) [Compound A146a], the IC50 against DGKα was 440 nM; on DGKζ, 283 nM. Taken in the same sequence, the figures for `CC[C@H]1CN(C2CCCc3ccccc32)[C@H](CC)CN1c1cc(=O)n(C)c2cn(CC#N)nc12` (single isomer, unassigned) [Compound A146b] were above 10000 nM and 4690 nM.

Consider `CC[C@H]1CN(C2CCOc3ccccc32)[C@H](CC)CN1c1cc(=O)n(C)c2cn(CC#N)nc12` (single isomer, unassigned) [Compound A150a], for which the IC50 against DGKα worked out at 5830 nM; at DGKζ, 2750 nM.

Take `CC[C@H]1CN(C2CCOc3ccccc32)[C@H](CC)CN1c1cc(=O)n(C)c2cn(CC#N)nc12` (single isomer, unassigned) [Compound A150b]: the values for the IC50 at DGKα and against DGKζ were 82.5 nM and 543 nM, respectively.

With `CC[C@@H]1CN(c2c(Cl)c(=O)n(C)c3cn(CC#N)nc23)CCN1C(C)c1ccc2nccnc2c1` (single isomer, unassigned) [Compound A162a], the values for the IC50 against DGKα and against DGKζ were above 10000 nM and 4480 nM, respectively.

Turning to `CC[C@H]1CN(C(C)c2ccc(F)cc2C(F)F)[C@H](CC)CN1c1cc(=O)n(C)c2cn(CC#N)nc12` (single isomer, unassigned) [Compound A172a], the IC50 at DGKα is above 10000 nM; against DGKζ it was 4320 nM. As to `CC[C@@H]1CN(c2cc(=O)[nH]c3cn(CC#N)nc23)[C@@H](C)CN1C(C)c1ccc2nccnc2c1` (single isomer, unassigned) [Compound A177b], the IC50 on DGKα is above 10000 nM; against DGKζ it was 3600 nM. In the case of `CC[C@H]1CN(C(C)c2ccc3nccnc3c2)[C@H](CC)CN1c1cc(=O)n(C(C)C)c2cn(CC#N)nc12` (single isomer, unassigned) [Compound A190a], the results for the half-inhibitory concentration (IC50) against DGKα and at DGKζ were above 10000 nM and 172 nM, respectively. `CC[C@H]1CN(C(C)c2ccc3nccnc3c2)[C@H](CC)CN1c1cc(=O)n(C(C)C)c2cn(CC#N)nc12` (single isomer, unassigned) [Compound A190b]: the half-maximal inhibitory concentration (IC50) at DGKζ was above 10000 nM. For the molecule `CC[C@H]1CN(C(C)c2nc(Cl)cn2CC)[C@H](CC)CN1c1cc(=O)n(C)c2cn(CC#N)nc12` (single isomer, unassigned) [Compound A191a], the IC50 on DGKα is above 10000 nM; at DGKζ it was 6780 nM. Take `CC[C@H]1CN(C(C)c2nc(Cl)cn2CC)[C@H](CC)CN1c1cc(=O)n(C)c2cn(CC#N)nc12` (single isomer, unassigned) [Compound A191b]: the IC50 against DGKζ is 1180 nM. This lies in the single-digit micromolar range. As to `CC[C@@H]1CN(c2c(F)c(=O)[nH]c3cn(CC#N)nc23)[C@@H](C)CN1C(C)c1ccc2nccnc2c1` (single isomer, unassigned) [Compound A194b], the IC50 was 5090 nM on DGKα and 1190 nM against DGKζ.

In the case of `CC[C@@H]1CN(c2cc(=O)n(C)c3cn(CC#N)nc23)[C@@H](C)CN1C(C)c1ccc(F)cc1C(F)(F)F` (single isomer, unassigned) [Compound A218a], the IC50 against DGKα was above 150000 nM; against DGKζ, 166 nM. For the molecule `CC#CCn1cc2c(n1)c(N1C[C@@H](CC)N(C(C)c3ccc(F)cc3C(F)(F)F)C[C@@H]1CC)cc(=O)n2C` (single isomer, unassigned) [Compound A238a], the results for the IC50 on DGKα and against DGKζ were above 10000 nM and 2390 nM, respectively. As for `Cc1c2c(nn1CC#N)c(N1C[C@@H](C)N(C(C)c3ccc(F)cc3C(F)(F)F)C[C@@H]1C)nc(=O)n2C` (single isomer, unassigned) [Compound A267b], the IC50 is above 150000 nM on DGKα and 70 nM against DGKζ. Consider `Cc1cnc2ccc([C@H](C)N3C[C@H](C)N(c4cc(=O)n(C)c5cn(CC#N)nc45)C[C@H]3C)cc2n1` (single isomer, unassigned) [Compound A269d], for which the IC50 against DGKα turned out to be 51700 nM; at DGKζ, 21 nM. `CC[C@H]1CN(C(C)c2ccc3nc(OC)cnc3c2)[C@H](CC)CN1c1cc(=O)n(C)c2cn(CC#N)nc12` (single isomer, unassigned) [Compound A281b]: the figures for the IC50 against DGKα and against DGKζ were 11200 nM and 1120 nM, respectively. As for `CC[C@H]1CN(C(C)c2ccc(C(F)F)nc2)[C@H](CC)CN1c1cc(=O)n(C)c2cn(CC#N)nc12` (single isomer, unassigned) [Compound A351b], the IC50 on DGKα amounted to 1190 nM; against DGKζ, 3250 nM.

Turning to `CC[C@H]1CN(C(C)c2ccc(CN3CCOCC3)cc2)[C@H](CC)CN1c1cc(=O)n(C)c2cn(CC#N)nc12` (single isomer, unassigned) [Compound A383b], the concentration for half-maximal inhibition (IC50) at DGKα was found to be 2790 nM; against DGKζ it was 4590 nM. With `CCC1CN(c2c(C#N)c(=O)n(C)c3cn(CC#N)nc23)CCN1C(C)c1ccc2nccnc2c1` [Compound A169, 2-(cyanomethyl)-7-((2S,5R)-3-ethyl-4-(1-(quinoxalin-6-yl)ethyl)piperazin-1-yl)-4-methyl-5-oxo-4,5-dihydro-2H-pyrazolo[4,3-b]pyridine-6-carbonitrile], the half-maximal inhibitory concentration (IC50) against DGKα is above 10000 nM; at DGKζ, 701 nM. On DGKζ, `COc1cc(F)ccc1C(C)N1C[C@H](C)N(c2cc(=O)n(C)c3cn(CC#N)nc23)C[C@H]1C` (stereo partly drawn) [Compound A248, 2-(7-((2S,5R)-4-(1-(2-omethoxy-4-fluorophenyl)ethyl)-2,5-dimethylpiperazin-1-yl)-4-methyl-5-oxo-4,5-dihydro-2H-pyrazolo[4,3-b]pyridin-2-yl)acetonitrile] came in with an IC50 of 579 nM.
